Laboratory results published in patent US11512079B2, “Heterocycle substituted pyridine derivative antifungal agents” (Amplyx Pharmaceuticals, Inc., priority 2017, dated 2022).
Values after ≈ are worked out from the molar mass of the structure shown.

Key:
Format in all cases: cell-based
Candida albicans 90028 = test: In vitro antifungal assay (Example IX), microdilution broth, MIC; details: minimum inhibitory concentration (≥50% inhibition), 35° C., 40-48 h, RPMI1640
Summary of the method: (§1)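 CLSI broth microdilution in RPMI1640 with 2.5×10^3 cells/mL and final compound concentrations of 2-0.0019 μg/mL (1% DMSO). C. albicans 90028 plates were incubated at 35° C. for 40-48 h and C. neoformans H99 for 72 h. MIC was read as minimum inhibitory concentration, verified at 600 nm.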

[1] = tested on: Cryptococcus neoformans H99; test: as above; details: minimum inhibitory concentration (≥50% inhibition), 35° C., 72 h, RPMI1640
Summary of the method: as §1

[2] = tested on: Aspergillus fumigatus MYA3626; test: In vitro antifungal assay (Example IX), microdilution broth, MEC; details: minimum effective concentration (shortening of hyphae), 35° C., 40-48 h, RPMI1640
Summary of the method: (§2)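 Spore suspensions of A. fumigatus and R. pusillus adjusted to 1-2×10^4 spores/mL in RPMI1640 and exposed to compound dilutions prepared in DMSO, by broth microdilution. MEC taken as the lowest concentration shortening hyphae versus DMSO control wells, read as for echinocandins.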

[3] = tested on: Rhizomucor pusillus 46342; test: as above; details: minimum effective concentration (shortening of hyphae), 35° C., 40-48 h, RPMI1640
Summary of the method: as §2

Cryptococcus gattii = test: In vitro antifungal assay (Example IX), microdilution broth, MIC; details: minimum inhibitory concentration (≥50% inhibition), 35° C., 72 h (Cryptococcus), RPMI1640
Summary of the method: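 Broth microdilution in RPMI1640 with 2.5×10^3 cells/mL inoculum; final compound concentrations were 2–0.0019 μg/mL, with 1% DMSO. Cryptococcus plates were incubated at 35 °C for 72 h, and growth was read at 600 nm to give the MIC.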

| MIC (Candida albicans 90028) | MIC [1] | MIC (Cryptococcus gattii) | Structure (SMILES) | minimal effective concentration [2] | minimal effective concentration [3] |
| --- | --- | --- | --- | --- | --- |
| 0.01 to 0.1 µg/mL (≈ 0.0278 to 0.278 µM) | 0.01 to 0.1 µg/mL (≈ 0.0278 to 0.278 µM) | 0.01 to 0.1 µg/mL (≈ 0.0278 to 0.278 µM) | Nc1ncccc1-c1cc(Cc2ccc(OCc3ccccn3)nc2)no1 [compound 35, 3-(3-((6-(pyridin-2-ylmethoxy)pyridin-3-yl)methyl)isoxazol-5-yl)pyridin-2-amine] | 0.01 to 0.1 µg/mL | > 1 µg/mL |
| 0.01 to 0.1 µg/mL (≈ 0.0278 to 0.278 µM) | 0.01 to 0.1 µg/mL (≈ 0.0278 to 0.278 µM) | 0.01 to 0.1 µg/mL (≈ 0.0278 to 0.278 µM) | Nc1ncccc1-c1cc(Cc2ccc(OCc3cccnc3)nc2)no1 [compound 36, 3-(3-((6-(pyridin-3-ylmethoxy)pyridin-3-yl)methyl)isoxazol-5-yl)pyridin-2-amine] | 0.01 to 0.1 µg/mL | > 1 µg/mL |
| 0.01 to 0.1 µg/mL (≈ 0.0278 to 0.278 µM) | ≤ 0.01 µg/mL | ≤ 0.01 µg/mL | Nc1ncccc1-c1cc(Cc2ccc(OCc3ccncc3)nc2)no1 [compound 37, 3-(3-((6-(pyridin-4-ylmethoxy)pyridin-3-yl)methyl)isoxazol-5-yl)pyridin-2-amine] | 0.01 to 0.1 µg/mL | > 1 µg/mL |
| 0.1 to 1 µg/mL (≈ 0.275 to 2.75 µM) | 0.1 to 1 µg/mL (≈ 0.275 to 2.75 µM) | 0.1 to 1 µg/mL (≈ 0.275 to 2.75 µM) | Cc1cc(COc2ccc(Cc3cc(-c4cccnc4N)on3)cn2)no1 [compound 38, 3-(3-((6-((5-methylisoxazol-3-yl)methoxy)pyridin-3-yl)methyl)isoxazol-5-yl)pyridin-2-amine] | 0.01 to 0.1 µg/mL | 0.1 to 1 µg/mL |
| 0.1 to 1 µg/mL (≈ 0.268 to 2.68 µM) | 0.1 to 1 µg/mL (≈ 0.268 to 2.68 µM) | 0.1 to 1 µg/mL (≈ 0.268 to 2.68 µM) | Nc1ncccc1-c1cc(Cc2ccc(OCCc3ccccn3)nc2)no1 [compound 39, 3-(3-((6-(2-(pyridin-2-yl)ethoxy)pyridin-3-yl)methyl)isoxazol-5-yl)pyridin-2-amine] | 0.1 to 1 µg/mL | > 1 µg/mL |
| 0.1 to 1 µg/mL (≈ 0.274 to 2.74 µM) | 0.01 to 0.1 µg/mL (≈ 0.0274 to 0.274 µM) | 0.01 to 0.1 µg/mL (≈ 0.0274 to 0.274 µM) | Nc1ncccc1-c1cc(Cc2ccc(OCc3cccs3)nc2)no1 [compound 40, 3-(3-((6-(thiophen-2-ylmethoxy)pyridin-3-yl)methyl)isoxazol-5-yl)pyridin-2-amine] | 0.01 to 0.1 µg/mL | 0.1 to 1 µg/mL |
| 0.01 to 0.1 µg/mL (≈ 0.0274 to 0.274 µM) | 0.01 to 0.1 µg/mL (≈ 0.0274 to 0.274 µM) | 0.01 to 0.1 µg/mL (≈ 0.0274 to 0.274 µM) | Nc1ncccc1-c1cc(Cc2ccc(OCc3cscn3)nc2)no1 [compound 41, 3-(3-((6-(thiazol-4-ylmethoxy)pyridin-3-yl)methyl)isoxazol-5-yl)pyridin-2-amine] | 0.01 to 0.1 µg/mL | 0.1 to 1 µg/mL |
| 0.01 to 0.1 µg/mL (≈ 0.0274 to 0.274 µM) | 0.01 to 0.1 µg/mL (≈ 0.0274 to 0.274 µM) | 0.01 to 0.1 µg/mL (≈ 0.0274 to 0.274 µM) | Nc1ncccc1-c1cc(Cc2ccc(OCc3nccs3)nc2)no1 [compound 42, 3-(3-((6-(thiazol-2-ylmethoxy)pyridin-3-yl)methyl)isoxazol-5-yl)pyridin-2-amine] | 0.01 to 0.1 µg/mL | 0.1 to 1 µg/mL |
| 0.1 to 1 µg/mL (≈ 0.31 to 3.1 µM) | 0.01 to 0.1 µg/mL (≈ 0.031 to 0.31 µM) | 0.01 to 0.1 µg/mL (≈ 0.031 to 0.31 µM) | Nc1ncccc1-c1cc(Cc2ccc(OCC3CC3)nc2)no1 [compound 43, 3-(3-((6-(cyclopropylmethoxy)pyridin-3-yl)methyl)isoxazol-5-yl)pyridin-2-amine] | 0.01 to 0.1 µg/mL | 0.1 to 1 µg/mL |
| 0.1 to 1 µg/mL (≈ 0.277 to 2.77 µM) | 0.1 to 1 µg/mL (≈ 0.277 to 2.77 µM) | 0.1 to 1 µg/mL (≈ 0.277 to 2.77 µM) | Nc1ncccc1-c1cc(Cc2ccc(OCc3ncccn3)nc2)no1 [compound 46, 3-(3-((6-(pyrimidin-2-ylmethoxy)pyridin-3-yl)methyl)isoxazol-5-yl)pyridin-2-amine] | 0.1 to 1 µg/mL | > 1 µg/mL |
| 0.01 to 0.1 µg/mL (≈ 0.0277 to 0.277 µM) | 0.1 to 1 µg/mL (≈ 0.277 to 2.77 µM) | 0.1 to 1 µg/mL (≈ 0.277 to 2.77 µM) | Nc1ncccc1-c1cc(Cc2ccc(OCc3cnccn3)nc2)no1 [compound 47, 3-(3-((6-(pyrazin-2-ylmethoxy)pyridin-3-yl)methyl)isoxazol-5-yl)pyridin-2-amine] | 0.1 to 1 µg/mL | 0.1 to 1 µg/mL |
| 0.01 to 0.1 µg/mL (≈ 0.0287 to 0.287 µM) | 0.01 to 0.1 µg/mL (≈ 0.0287 to 0.287 µM) | 0.01 to 0.1 µg/mL (≈ 0.0287 to 0.287 µM) | Nc1ncccc1-c1cc(Cc2ccc(OCc3ccoc3)nc2)no1 [compound 48, 3-(3-((6-(furan-3-ylmethoxy)pyridin-3-yl)methyl)isoxazol-5-yl)pyridin-2-amine] | 0.01 to 0.1 µg/mL | 0.1 to 1 µg/mL |
| 0.1 to 1 µg/mL (≈ 0.264 to 2.64 µM) | 0.1 to 1 µg/mL (≈ 0.264 to 2.64 µM) | 0.1 to 1 µg/mL (≈ 0.264 to 2.64 µM) | Cc1nc(COc2ccc(Cc3cc(-c4cccnc4N)on3)cn2)cs1 [compound 50, 3-(3-((6-((2-methylthiazol-4-yl)methoxy)pyridin-3-yl)methyl)isoxazol-5-yl)pyridin-2-amine] | 0.1 to 1 µg/mL | > 1 µg/mL |
| 0.1 to 1 µg/mL (≈ 0.265 to 2.65 µM) | 0.1 to 1 µg/mL (≈ 0.265 to 2.65 µM) | 0.1 to 1 µg/mL (≈ 0.265 to 2.65 µM) | Nc1ncccc1-c1cc(Cc2ccc(OCc3ccc(F)cn3)nc2)no1 [compound 51, 3-(3-((6-((5-fluoropyridin-2-yl)methoxy)pyridin-3-yl)methyl)isoxazol-5-yl)pyridin-2-amine] | 0.01 to 0.1 µg/mL | 0.1 to 1 µg/mL |
| 0.1 to 1 µg/mL (≈ 0.286 to 2.86 µM) | 0.1 to 1 µg/mL (≈ 0.286 to 2.86 µM) | 0.1 to 1 µg/mL (≈ 0.286 to 2.86 µM) | Nc1ncccc1-c1cc(Cc2ccc(OCc3ncco3)nc2)no1 [compound 53, 3-(3-((6-(oxazol-2-ylmethoxy)pyridin-3-yl)methyl)isoxazol-5-yl)pyridin-2-amine] | 0.1 to 1 µg/mL | 0.1 to 1 µg/mL |
| 0.01 to 0.1 µg/mL (≈ 0.0265 to 0.265 µM) | 0.01 to 0.1 µg/mL (≈ 0.0265 to 0.265 µM) | ≤ 0.01 µg/mL | Nc1ncccc1-c1cc(Cc2ccc(OCc3ccncc3F)nc2)no1 [compound 54, 3-(3-((6-((3-fluoropyridin-4-yl)methoxy)pyridin-3-yl)methyl)isoxazol-5-yl)pyridin-2-amine] | 0.01 to 0.1 µg/mL | > 1 µg/mL |
| 0.1 to 1 µg/mL (≈ 0.268 to 2.68 µM) | 0.1 to 1 µg/mL (≈ 0.268 to 2.68 µM) | 0.1 to 1 µg/mL (≈ 0.268 to 2.68 µM) | CC(Oc1ccc(Cc2cc(-c3cccnc3N)on2)cn1)c1ccccn1 (stereo not shown) [compound 55, 3-(3-((6-(1-(pyridin-2-yl)ethoxy)pyridin-3-yl)methyl)isoxazol-5-yl)pyridin-2-amine] | 0.1 to 1 µg/mL | > 1 µg/mL |
| 0.01 to 0.1 µg/mL (≈ 0.0297 to 0.297 µM) | 0.01 to 0.1 µg/mL (≈ 0.0297 to 0.297 µM) | ≤ 0.01 µg/mL | Nc1ncccc1-c1cc(Cc2ccc(OCC3CCC3)nc2)no1 [compound 57, 3-(3-((6-(cyclobutylmethoxy)pyridin-3-yl)methyl)isoxazol-5-yl)pyridin-2-amine] | 0.01 to 0.1 µg/mL | 0.1 to 1 µg/mL |
| 0.01 to 0.1 µg/mL (≈ 0.0291 to 0.291 µM) | 0.1 to 1 µg/mL (≈ 0.291 to 2.91 µM) | 0.01 to 0.1 µg/mL (≈ 0.0291 to 0.291 µM) | Nc1ncccc1-c1cc(Cc2ccc(Nc3ccccc3)nc2)no1 [compound 58, 5-((5-(2-aminopyridin-3-yl)isoxazol-3-yl)methyl)-N-phenylpyridin-2-amine] | 0.1 to 1 µg/mL | 0.1 to 1 µg/mL |
| 0.01 to 0.1 µg/mL (≈ 0.0277 to 0.277 µM) | 0.01 to 0.1 µg/mL (≈ 0.0277 to 0.277 µM) | 0.01 to 0.1 µg/mL (≈ 0.0277 to 0.277 µM) | Nc1ncccc1-c1cc(Cc2ccc(Nc3ccccc3F)nc2)no1 [compound 60, 5-((5-(2-aminopyridin-3-yl)isoxazol-3-yl)methyl)-N-(2-fluorophenyl)pyridin-2-amine] | 0.1 to 1 µg/mL | > 1 µg/mL |
| 0.01 to 0.1 µg/mL (≈ 0.0267 to 0.267 µM) | 0.1 to 1 µg/mL (≈ 0.267 to 2.67 µM) | 0.01 to 0.1 µg/mL (≈ 0.0267 to 0.267 µM) | Nc1ncccc1-c1cc(Cc2ccc(SCc3ccccc3)nc2)no1 [compound 61, 3-(3-((6-(benzylthio)pyridin-3-yl)methyl)isoxazol-5-yl)pyridin-2-amine] | 0.01 to 0.1 µg/mL | > 1 µg/mL |
| 0.1 to 1 µg/mL (≈ 0.292 to 2.92 µM) | > 1 µg/mL | > 1 µg/mL | c1ccc(OCc2ccc(Cn3cc(-c4cccnc4)cn3)cc2)nc1 [compound 62, 2-((4-((4-(pyridin-3-yl)-1H-pyrazol-1-yl)methyl)benzyl)oxy)pyridine] | 0.01 to 0.1 µg/mL | > 1 µg/mL |
| 0.1 to 1 µg/mL (≈ 0.292 to 2.92 µM) | 0.1 to 1 µg/mL (≈ 0.292 to 2.92 µM) | 0.1 to 1 µg/mL (≈ 0.292 to 2.92 µM) | c1ccc(COc2ccc(Cn3cc(-c4cccnc4)cn3)cn2)cc1 [compound 65, 2-(benzyloxy)-5-((4-(pyridin-3-yl)-1H-pyrazol-1-yl)methyl)pyridine] | 0.01 to 0.1 µg/mL | > 1 µg/mL |
| 0.01 to 0.1 µg/mL (≈ 0.0277 to 0.277 µM) | 0.01 to 0.1 µg/mL (≈ 0.0277 to 0.277 µM) | 0.01 to 0.1 µg/mL (≈ 0.0277 to 0.277 µM) | Nc1ncccc1-c1cc(Cc2ccc(Cc3cccnc3F)cc2)no1 [compound 69, 3-(3-(4-((2-fluoropyridin-3-yl)methyl)benzyl)isoxazol-5-yl)pyridin-2-amine] | 0.01 to 0.1 µg/mL | 0.1 to 1 µg/mL |
| 0.1 to 1 µg/mL (≈ 0.266 to 2.66 µM) | 0.1 to 1 µg/mL (≈ 0.266 to 2.66 µM) | 0.1 to 1 µg/mL (≈ 0.266 to 2.66 µM) | Nc1ncccc1-c1cc(Cc2ccc(CNc3ccnc(F)c3)cc2)no1 [compound 70, 3-(3-(4-(((2-fluoropyridin-4-yl)amino)methyl)benzyl)isoxazol-5-yl)pyridin-2-amine] | 0.01 to 0.1 µg/mL | > 1 µg/mL |
| 0.01 to 0.1 µg/mL (≈ 0.0264 to 0.264 µM) | 0.01 to 0.1 µg/mL (≈ 0.0264 to 0.264 µM) | 0.1 to 1 µg/mL (≈ 0.264 to 2.64 µM) | Nc1ncccc1-c1cc(Cc2ccc(Nc3cccc(F)c3F)nc2)no1 [compound 72, 5-((5-(2-aminopyridin-3-yl)isoxazol-3-yl)methyl)-N-(2,3-difluorophenyl)pyridin-2-amine] | 0.1 to 1 µg/mL | 0.1 to 1 µg/mL |
